Consider nine molecules from patent US11845752B2, “Substituted imidazo[1,5-a]pyrazines for the treatment of hepatitis B” (ALIGOS THERAPEUTICS, INC., priority 2020, dated 2023).

Molecules are shown by their SMILES. Where two headings read alike, the source gives them in different places. Some results are limits rather than exact numbers.

This assay relates to HBV. Put plainly: HBV-DNA antiviral assay using HepG2.117 cells (intracellular HBV DNA by qPCR). Particulars: HBV DNA inhibition, 3 days incubation. The format is cell-based, HBV genotype D. As to the method: The following assay procedure describes the HBV antiviral assay, using HepG2.117 cells, which carry a stably integrated genotype D HBV genome under the control of a Tet-off promoter, and intracellular HBV DNA quantification as endpoint. Cell viability is assessed in parallel by measuring the intracellular ATP content using ATPlite (Perkin Elmer).
On day 0, HepG2.117 cells (which are maintained in routine cell culture with doxycycline present in the medium at a final concentration of 1 μg/mL) were seeded in 96-well plates (white with clear bottom) at a density of 2.0×10^4 cells/well (0.1 mL/well) in medium without doxycycline to induce pgRNA transcription and subsequent formation of HBV particles. The cells were incubated at 37° C. and 5% CO2.
On day 1, medium was removed from each well, the test articles were diluted in culture medium without doxcycyline and 100 μL was added to cell culture wells (9 concentrations, 4-fold dilution). For each plate, 6 untreated (merely DMSO) wells were included. The final concentration of DMSO in the culture medium was 2%. Each plate was prepared in duplicate (one for HBV DNA extraction, one for ATPlite measurement). The cells were incubated at 37° C. and 5% CO2 for 3 days.
On day 4, cell viability was assessed using ATPlite and cell lysates were prepared for HBV DNA extraction and subsequent quantification by qPCR.
Medium was removed from each well and 100 μL of 0.33% NP-40 in H2O was added to each well. Plates were sealed, incubated at 4° C. for 5 mins, vortexed extensively and centrifuged briefly. Next, 35 μL of lysate was added to 65 μL QuickExtract DNA Extraction Solution (Epicentre) in a PCR plate for each well. PCR plate was incubated at 65° C. for 6 mins, 98° C. for 2 mins and finally cooled to 4° C. HBV DNA was then quantified by qPCR with HBV-specific primers and probes as specified in Table 1 using the Bio-Rad SSOAdvanced Universal Probes Supermix on a CFX96 machine (Bio-Rad). The PCR cycle program consisted of 95° C. for 3 mins, followed by 40 cycles at 95° C. for 10 sec and 60° C. for 30 sec.
A DNA standard was prepared by dilution of an IDT gBlock corresponding to the amplicon with concentrations ranging from 10^2 to 10^8 copies/input (i.e. per 4 μL) and used to generate a standard curve by plotting Cq values vs. HBV DNA standard concentration. The quantity of HBV DNA in each sample was determined by interpolating from the standard curve.
Cell viability was calculated as follows: % Cell viability=(luminescence value of test sample)/(average luminescence value of 2% DMSO control)×100%. HBV DNA inhibition was calculated as follows: 100−(HBV DNA copy number of test sample)/(average HBV DNA copy number of 2% DMSO control)×100%. No normalization to entecavir was required due to the excellent dynamic window of this assay. The CC50, EC50 and EC90 values were determined by dose-response curves fitted using non-linear regression.

Where [1] appears, read: Hepatitis B virus, HepG2.117, 72 h, read-out: EC50.

`CC1Cn2c(c(C(=O)NCc3c(F)cccc3-c3cccc(N)n3)n(-c3ccc(OC4CC4)cc3)c2=O)CN1C(=O)c1ccc(Br)c(Cl)c1` (single isomer, unassigned) [Compound 35b]: the EC50 (read-out: EC50) is under 50 nM.

`CC1Cn2c(c(C(=O)NCc3ccccc3-c3ccncn3)n(-c3ccc(N4CC5(CN(C)C5)C4)cc3)c2=O)CN1C(=O)c1ccc(Br)c(C(F)(F)F)c1` (single isomer, unassigned) [Compound 73a, (6R*)-7-[4-bromo-3-(trifluoromethyl)benzoyl]-6-methyl-2-(4-{6-methyl-2,6-diazaspiro[3.3]heptan-2-yl}phenyl)-3-oxo-N-{[2-(pyrimidin-4-yl)phenyl]methyl}-5H,6H,8H-imidazo[1,5-a]pyrazine-1-carboxamide]: under “read-out: EC50”, the EC50 fell in the range of 500 to 5000 nM.

In turn, `CC1Cn2c(c(C(=O)NCc3ccccc3-c3ccncn3)n(-c3ccc(-n4cccn4)cc3)c2=O)CN1C(=O)c1ccc(Br)c(Cl)c1` (single isomer, unassigned) [Compound 4b, 7-(4-bromo-3-chloro-benzoyl)-6-methyl-3-oxo-2-(4-pyrazol-1-ylphenyl)-N-[(2-pyrimidin-4-ylphenyl)methyl]-6,8-dihydro-5H-imidazo[1,5-a]pyrazine-1-carboxamide] gave an EC50 (listed as 4h) of under 50 nM.

`O=C(NCc1ccccc1)c1c2n(c(=O)n1-c1ccc(N3CC4CC[C@@H]3CO4)cc1)CCN(C(=O)c1ccc(Br)c(Cl)c1)C2` (single isomer, unassigned) [Compound 125b]: under setting [1], the EC50 was 50 to 500 nM.

Regarding `O=C(NCc1ccccc1)c1c2n(c(=O)n1-c1ccc(N3CCN(CC(F)(F)F)CC3)cc1)CCN(C(=O)c1ccc(Br)c(Cl)c1)C2` [Compound 122, N-benzyl-7-(4-bromo-3-chloro-benzoyl)-3-oxo-2-[4-[4-(2,2,2-trifluoroethyl)piperazin-1-yl]phenyl]-6,8-dihydro-5H-imidazo[1,5-a]pyrazine-1-carboxamide], the EC50 under setting [1] is 50 to 500 nM.

For the molecule `C[C@H](O)Cn1ncc2cc(-n3c(C(=O)NCc4ccccc4-c4ncccn4)c4n(c3=O)C[C@@H](C)N(C(=O)c3ccc(Br)c(C(F)(F)F)c3)C4)ccc21` (mixture of isomers) [Compound 94a, (6RS)-7-[4-bromo-3-(trifluoromethyl)benzoyl]-2-[1-[(2S)-2-hydroxypropyl]indazol-5-yl]-6-methyl-3-oxo-N-[(2-pyrimidin-2-ylphenyl)methyl]-6,8-dihydro-5H-imidazo[1,5-a]pyrazine-1-carboxamide], the EC50 under setting [1] was in the range of 50 to 500 nM.

For `CC1Cn2c(c(C(=O)NCc3ccccc3-c3ncccn3)n(-c3ccc4oncc4c3)c2=O)CN1C(=O)c1ccc(Br)c(C(F)(F)F)c1` (single isomer, unassigned) [Compound 108b], the EC50 (read-out: EC50) lay within 500 to 5000 nM.

As to `O=C(NCc1ccccc1)c1c2n(c(=O)n1-c1ccc(N3CC(O)(C(F)(F)F)C3)cc1)CCN(C(=O)c1ccc(Br)c(Cl)c1)C2` [Compound 118, N-benzyl-7-(4-bromo-3-chloro-benzoyl)-2-[4-[3-hydroxy-3-(trifluoromethyl)azetidin-1-yl]phenyl]-3-oxo-6,8-dihydro-5H-imidazo[1,5-a]pyrazine-1-carboxamide], under setting [1], the EC50 lay in the range of 50 to 500 nM.

Regarding `C[C@@H](O)Cn1ncc2cc(-n3c(C(=O)NCc4ccccc4-c4ccn(CC(F)(F)F)n4)c4n(c3=O)C[C@H](C)N(C(=O)c3ccc(Br)c(C(F)(F)F)c3)C4)ccc21` (mixture of isomers) [Compound 111b, (6SR)-7-[4-bromo-3-(trifluoromethyl)benzoyl]-2-[1-[(2R)-2-hydroxypropyl]indazol-5-yl]-6-methyl-3-oxo-N-[[2-[1-(2,2,2-trifluoroethyl)pyrazol-3-yl]phenyl]methyl]-6,8-dihydro-5H-imidazo[1,5-a]pyrazine-1-carboxamide], the EC50 under setting [1] fell in the range of 50 to 500 nM.
